US10519125B2, “Flavagline derivatives” (PIERRE FABRE MEDICAMENT, priority 2014, dated 2019)

System: MDA-MB-231 human tumor xenograft
Assay: Antitumor activity, subcutaneous MDA-MB-231 breast cancer xenografts in SCID mice
Assay type: in vivo
Details: for Activity: q1d5 × 3, MDA-MB-231; for Deaths (%): q1d5 × 3, SCID mice
Protocol: Subcutaneous xenografts were established with MDA-MD-231 breast cancer cells (ATCC: HTB-26) in SCID mice (Harlan, U.K.). The animals were treated and cared after in accordance with the Guide For the Care and Use of Laboratory Animals (National Research Council, 1996) and with European Directive 86/609/EEC, under the supervision of a staff expert authorized to conduct experimental studies with laboratory animals.
All the experiments were conducted pursuant to French and local regulations (Department of Veterinary Services, Haute-Garonne, Toulouse) according to the directives of an ethics committee, based on the UKCCCR Guidelines for the Welfare of Animals in Experimental Neoplasia, as indicated above. The implantation of MDA-MB-231 human tumor fragments is carried subcutaneously in the flanks of SCID mice using a trocar and, for the study of tumor growth, the tumors are allowed to reach a median volume of 70-130 mm^3 before starting the studies.
After randomization in the treatment cages, the inhibitors were administered intravenously according to a g1d5×3 treatment scheme (5 injections per week for 3 weeks). The mice were monitored and weighed daily. The tumors were measured with a slide caliper and the tumor volumes (mm^3) were estimated using the following formula: volume=0.5 (length×width^2). Each experimental group consists of 5 individuals. The efficacy of the treatment was evaluated by analysis of the measurement of the median volume of the treated tumors compared with the median volume of the tumors receiving only carrier (control). The T/C evaluation criterion corresponds to: [(median volume of the treated group, T/median volume of the control group, C)×100]. This T/C ratio is expressed as a percentage. The optimal T/C value corresponds to the ratio which reflects the maximum inhibition of growth obtained during the study. The maximum gains or losses of weight, expressed as a percentage of the initial weight of the animals, as well as the percentage of drug-related deaths (i.e., the percentage of treated animals that died before the assessment) were used to provide an evaluation of the toxicity of the compounds. In accordance with the NCI (National Cancer Institute) criterion, a dose is deemed toxic if it induces weight loss greater than −20% relative to the initial weight of the mouse or if it induces more than 20% deaths (Corbett et al. J Exp Ther Oncol 1996, 1:95-108).

[1] = Mus musculus, MDA-MB-231, iv, read-out: Opt. T/C (%)

## COc1ccc([C@@]23Oc4cc(OC)cc(OC)c4[C@]2(O)[C@H](O)[C@H](c2nnc(N)o2)[C@H]3c2ccccc2)cc1 (racemic) [Compound 18, rac-(1R,2R,3S,3aR,8bS)-2-(5-amino-1,3,4-oxadiazol-2-yl)-6,8-dimethoxy-3a-(4-methoxyphenyl)-3-phenyl-2,3,3a,8b-tetrahydro-1H-cyclopenta[b]benzofuran-1,8b-diol]
2.5 mg/kg intravenously
  Activity: Active
  Deaths (%): 0%
3.5 mg/kg intravenously
  Activity: Active
  Deaths (%): 0%
[1]
  response vs control in vivo at 2.5 mg/kg: 40%
  response vs control in vivo at 3.5 mg/kg: 6%

## COc1ccc([C@@]23Oc4cc(OC)cc(OC)c4[C@]2(O)[C@H](O)[C@H](c2nnc(C)[nH]2)[C@H]3c2ccccc2)cc1 (racemic) [Compound 30, rac-(1R,2S,3S,3aR,8bS)-6,8-dimethoxy-3a-(4-methoxyphenyl)-2-(5-methyl-4H-1,2,4-triazol-3-yl)-3-phenyl-2,3,3a,8b-tetrahydro-1H-cyclopenta[b]benzofuran-1,8b-diol]
0.7 mg/kg intravenously
  Activity: Active
  Deaths (%): 0%
[1]
  response vs control in vivo at 0.7 mg/kg: 15%

## COc1ccc([C@@]23Oc4cc(OC)cc(OC)c4[C@]2(O)[C@H](O)[C@H](c2nnc(N)o2)[C@H]3c2ccccc2)cc1 [Compound 19, (1R,2R,3S,3aR,8bS)-2-(5-amino-1,3,4-oxadiazol-2-yl)-6,8-dimethoxy-3a-(4-methoxyphenyl)-3-phenyl-2,3,3a,8b-tetrahydro-1H-cyclopenta[b]benzofuran-1,8b-diol]
1.3 mg/kg intravenously
  Activity: Active
  Deaths (%): 0%
[1]
  response vs control in vivo at 1.3 mg/kg: 26%

## COc1ccc([C@@]23Oc4cc(OCCN(C)C)cc(OC)c4[C@]2(O)[C@H](O)[C@H](c2nnc(N)o2)[C@H]3c2ccccc2)cc1 (racemic) [Compound 21, rac-(1R,2R,3S,3aR,8bS)-2-(5-amino-1,3,4-oxadiazol-2-yl)-6-(2-(dimethylamino)ethoxy)-8-methoxy-3a-(4-methoxyphenyl)-3-phenyl-2,3,3a,8b-tetrahydro-1H-cyclopenta[b]benzofuran-1,8b-diol]
1 mg/kg intravenously
  Activity: Active
  Deaths (%): 0%
[1]
  response vs control in vivo at 1 mg/kg: 22%

## CNc1nnc([C@H]2[C@@H](O)[C@@]3(O)c4c(OC)cc(OC)cc4O[C@@]3(c3ccc(OC)cc3)[C@@H]2c2ccccc2)o1 (racemic) [Compound 24, rac-(1R,2R,3S,3aR,8bS)-6,8-dimethoxy-3a-(4-methoxyphenyl)-2-(5-(methylamino)-1,3,4-oxadiazol-2-yl)-3-phenyl-2,3,3a,8b-tetrahydro-1H-cyclopenta[b]benzofuran-1,8b-diol]
2.8 mg/kg intravenously
  Activity: Active
  Deaths (%): 0%
[1]
  response vs control in vivo at 2.8 mg/kg: 25%

## COc1ccc([C@@]23Oc4cc(OCCN5CCN(C)CC5)cc(OC)c4[C@]2(O)[C@H](O)[C@H](c2nnc(N)o2)[C@H]3c2ccccc2)cc1 (racemic) [Compound 22, rac-(1R,2R,3S,3aR,8bS)-2-(5-amino-1,3,4-oxadiazol-2-yl)-8-methoxy-3a-(4-methoxyphenyl)-6-(2-(4-methylpiperazin-1-yl)ethoxy)-3-phenyl-2,3,3a,8b-tetrahydro-1H-cyclopenta[b]benzofuran-1,8b-diol]
1.4 mg/kg intravenously
  Activity: Active
  Deaths (%): 0%
[1]
  response vs control in vivo at 1.4 mg/kg: 21%
